How the values were obtained:
[1] = Cytotoxicity against african green monkey Vero cells; format: cell-based; conditions: chlorocebus sabaeus
HL-60 = assay: Anticancer activity against human HL60 cells; format: functional, cell-based
[2] = Cytotoxicity against human HeLa cells; format: cell-based
L1210 = assay: Cytotoxicity against mouse L1210 cells after 65 hrs by MTS/PES microculture tetrazolium assay; format: functional, cell-based; conditions: L1210, 65 h

## COc1ccc(/C=N/NC(=N)NO)cc1O
[1]
  CC50: > 100 µM
HL-60
  IC50: > 100 µM
[2]
  CC50: > 100 µM

## Cc1ccccc1/C=N/NC(=N)NO
[1]
  CC50: > 100 µM
HL-60
  IC50: > 100 µM
[2]
  CC50: > 100 µM

## Cc1ccsc1/C=N/N=C(/N)NO
L1210
  IC50: 33.2 µM

## Cc1ccn(C)c1/C=N/NC(=N)NO
L1210
  IC50: 2.7 µM

## COc1ccc(/C=N/NC(=N)NO)cc1
[1]
  CC50: > 100 µM
HL-60
  IC50: > 100 µM
[2]
  CC50: > 100 µM

## COc1cccc(/C=N/NC(=N)NO)c1
L1210
  IC50: 16 µM

## O=C(NO)N/N=C/C1CCCCC1
L1210
  IC50: 21.2 µM

## N/C(=N\O)N/N=C/c1cccs1
L1210
  IC50: 34.1 µM

## CS(=O)(=O)Oc1ccc(/C=N/NC(=N)NO)cc1
L1210
  IC50: 14.8 µM

## CC(C)c1ccc2c(c1)C(=O)C(/C=N\NC(=O)NO)=CC2
L1210
  IC50: 32.2 µM

## CCCCOc1ccc(/C=N/NC(=N)NO)cc1
L1210
  IC50: 8.53 µM

## N=C(NO)N/N=C/c1ccc(O)cc1
[1]
  CC50: > 100 µM
HL-60
  IC50: > 100 µM
[2]
  CC50: > 100 µM

## N=C(NO)N/N=C/c1ccc(Cl)cc1
[1]
  CC50: > 100 µM
HL-60
  IC50: > 100 µM
[2]
  CC50: > 100 µM

## CCCCCCOc1ccc(/C=N/NC(=N)NO)cc1
L1210
  IC50: 7.8 µM

## N/C(=N/N=C/c1ccccn1)NO
L1210
  IC50: 10.9 µM

## CN(C)c1ccc(/C=N/NC(=N)NO)cc1
[1]
  CC50: > 100 µM
HL-60
  IC50: > 100 µM
[2]
  CC50: > 100 µM

## N=C(NO)N/N=C/c1c2ccccc2cc2ccccc12
[1]
  CC50: > 100 µM
HL-60
  IC50: 11 µM
[2]
  CC50: > 100 µM

## N=C(NO)N/N=C/c1ccccc1Cl
[1]
  CC50: > 100 µM
HL-60
  IC50: 60 µM
[2]
  CC50: > 100 µM

## O=C(NO)N/N=C\C1=CCc2c(Cl)cc(Cl)cc2C1=O
L1210
  IC50: 28.2 µM

## N=C(NO)N/N=C1\C(=O)Nc2ccccc21
L1210
  IC50: 48.4 µM

## N=C(NN)NO
L1210
  IC50: 126 µM

## N/C(=N\O)N/N=C/c1ccccc1O
[1]
  CC50: > 100 µM
HL-60
  IC50: 95 µM
[2]
  CC50: > 100 µM

## COc1ccccc1/C=N/N=C(\N)NO
[1]
  CC50: > 100 µM
HL-60
  IC50: > 100 µM
[2]
  CC50: > 100 µM

## N/C(=N\O)N/N=C/c1cccc(C(F)(F)F)c1
L1210
  IC50: 15.1 µM

## O=C(NO)N/N=C/C1CC2C=CC1C2 (configuration not stated)
L1210
  IC50: 10.6 µM

## Cc1cccc(/C=N/N=C(\N)NO)n1
L1210
  IC50: 42.1 µM

## N/C(=N\O)N/N=C/c1cccc(I)c1
L1210
  IC50: 12.5 µM

## N=C(NO)N/N=C/c1ccco1
[1]
  CC50: > 100 µM
HL-60
  IC50: > 100 µM
[2]
  CC50: > 100 µM

## N=C(NO)N/N=C/c1ccccc1
[1]
  CC50: > 100 µM
HL-60
  IC50: 62 µM
[2]
  CC50: > 100 µM

## Cc1ccc(/C=N/NC(=N)NO)cc1
[1]
  CC50: > 100 µM
HL-60
  IC50: 67 µM
[2]
  CC50: > 100 µM

## N=C(NO)N/N=C/c1cc2ccccc2cn1
L1210
  IC50: 3.3 µM

— ChEMBL document CHEMBL1777675, “N-hydroxy-N'-aminoguanidines as anti-cancer lead molecule: QSAR, synthesis and biological evaluation” (Bioorg Med Chem Lett, 2011)
